The values that follow come from article PMC9679916 (Biomacromolecules, 2021).

One assay has as its target T1, human MRP-14 (hS100A9) (Homo sapiens, UniProt P06702).
T1 sequence (P06702 1-114): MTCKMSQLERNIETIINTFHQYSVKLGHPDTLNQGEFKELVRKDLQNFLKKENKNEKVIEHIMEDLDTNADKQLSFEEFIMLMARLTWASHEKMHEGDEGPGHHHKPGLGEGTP
The experiment in a line: ELISA-based binding affinity of MRP-14-targeted TMV, human protein. As to conditions: read-out: KD (nM) human MRP-14, hS100A9 2 μg/mL coated, TMV 0-5 μg/mL, anti-TMV detection, single-site binding model, estimated.

Another assay has as its target T2, mouse MRP-14 (mS100A9) (Mus musculus, UniProt P31725).
T2 sequence (P31725 1-113): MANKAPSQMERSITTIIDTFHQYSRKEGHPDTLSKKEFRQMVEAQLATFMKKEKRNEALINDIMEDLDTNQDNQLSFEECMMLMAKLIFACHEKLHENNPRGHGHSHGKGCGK
The experiment in a line: ELISA-based binding affinity of MRP-14-targeted TMV, mouse protein. As to conditions: for Kd: read-out: KD (nM) mouse MRP-14, ELISA, mS100A9 2 μg/mL coated, TMV 0-5 μg/mL, anti-TMV detection, single-site binding model, estimated.

For assay [1], the system named is deep vein thrombi in inferior vena cava. The experiment in a line: Murine DVT model. The following applies: vs PBS group, 3 h postinjection. The assay is classed as in vivo, mouse.
Assay [2] concerns the target T3, His-tagged MRP-14 (myeloid related protein 14) (human, UniProt P06702 1-114).
T3 sequence: T1 sequence (P06702 1-114)
The assay can be described thus: SPR.

Assay [3] concerns the target T4, MRP-8/14 heterodimer (untagged MRP-8 premixed 1:1 with His-tagged MRP-14) (human | , UniProt P06702;P05109).
T4 sequence 1: T1 sequence (P06702 1-114)
T4 sequence 2: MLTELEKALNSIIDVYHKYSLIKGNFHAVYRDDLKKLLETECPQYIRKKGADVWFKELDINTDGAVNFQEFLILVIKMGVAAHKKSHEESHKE
The assay can be described thus: SPR.

Bridges are numbered along the chain shown (N, C = ends). Where no end group is shown, it is not given here.

As for “ACNSVHQHHCGGGS-N3 (disulfide) [TMV-MTP6]”, the Kd on human MRP-14 (hS100A9) is 11.4 nM; on mouse MRP-14 (mS100A9), 2.6 nM. The “binding affinity, times stronger toward mouse than human MRP-14” value on mouse MRP-14 (mS100A9) (ratio of ELISA KD values, mouse vs human MRP-14) is listed as ~ 4 times.

For the molecule ASSHIHHGGGS-C [CPMV-MTP2], the “reduction in thrombus weight and area” value in assay [1] came to 50%.

Take ASSHIHHGGGS-C [TMV-MTP2]: the Kd was 13.1 nM at human MRP-14 (hS100A9) and 11.9 nM at mouse MRP-14 (mS100A9).

HNHMADPGGGS-NH2 [MTP3 synthetic peptide with GGGS spacer] came in with a Kd in assay [2] of 117 µM.

With ACNSHRHGACGGGS-NH2 (disulfide 2-10 (inferred)) [MTP5 synthetic peptide with GGGS spacer], in assay [2], the Kd was 67.6 µM.

Take ACNSVHQHHCGGGS [MTP6 synthetic peptide with GGGS spacer]: the values for the Kd in assay [3] and in assay [2] were 57.6 µM and 39.6 µM, respectively.
